Measurements from US7655225B2, “Methods of expanding stem and progenitor cells and expanded cell populations obtained thereby” (Gamida Cell, Ltd., priority 2002, dated 2010).

Experiments:
Type in all cases: cell-based, human
mononuclear cells (MNC) = assay: Ex vivo expansion of stem and progenitor cells in mixed cells culture: cell enumeration and FACS; conditions: for cumulative number of CD34+ cells: TEPA first three weeks only, FIGS. 16a-b; for cumulative number of CD34+ cells per culture bag: control 2.56×10^6; for Portion of CD34+ cells (%): control 0.2; for Number of CD34+ cells (×10^4): control 256.0
Description: Sample collection and processing: Samples were obtained from umbilical cord blood after a normal full-term delivery and were frozen within 24 hours pospartum. The blood cells were thawed in Dextran buffer and incubated for […] in MEM (Biological Industries, Israel) supplemented with 10% fetal calf serum (FCS; Biological Industries). The cells were then layered on Ficoll-Hypaque (density 1.077 gram/ml; Sigma) and centrifuged at 400 g for 30 minutes at room temperature. The mononuclear cells in the interface layer were then collected, washed three times in phosphate-buffered saline (PBS; Biological Industries), and re-suspended in PBS containing 0.5% human serum albumin (HSA). The cells were then split into two fractions, the first being the mononuclear cells (MNC) and the second fraction was used for purifying CD34^+ cells by immunomagnetic separation using the “MiniMACS CD34^+ progenitor cell isolation kit” (Miltenyi Biotec, Auburn, Calif.) according to the manufacturer's recommendations. The purity of the CD34^+ cells obtained ranged between 95% and 98%, based on Flow Cytometry evaluation (see below). Ex vivo expansion of progenitor cells: The non-purified mononuclear cells (MNC), obtained as described hereinabove, were seeded in Culture Bags (American Fluoroseal Corp.), with alpha minimal essential medium supplemented with 10% fetal bovine serum (FBS, Biological Industries), at a concentration of about 10^6 cells/ml. The purified CD34^+ cells were similarly seeded in the Culture Bags, at a concentration of […]. The media were supplemented with TEPA chelator and/or with the following human recombinant cytokines (all obtained from Perpo Tech, Inc., Rocky Hill, N.J.): Thrombopoietin (TPO), 50 ng/ml; interleukin 6 (IL-6), 50 ng/ml; FLT-3 ligand, 50 ng/ml and a stem cell factor (SCF), 50 ng/ml; occasionally SCF was replaced by IL-3, 20 ng/ml. For non-hemopoietic differentiation, FGF, EGF, NGF, VEGF, LIF or Hepatocyte growth factor, were used alone or in various combinations. All cultures were incubated at 37° C. in an atmosphere of 5% CO2 in air with extra humidity. At weekly intervals, the cell cultures were semi-depopulated and supplemented with fresh medium containing cytokines. Following different incubation periods, cells were harvested, stained with trypan blue and enumerated. Determining the density of stem and progenitor subset populations following expansion was carried out as described in the experimental procedures section of Example 3 above. Non-purified mononuclear cells (MNC) were seeded in culture bags and were provided with nutrients and cytokines as described above. The MNC cultures were either treated or untreated (untreated controls) with TEPA-chelator. The treated MNC cultures were supplemented with TEPA for only the first three weeks and from week three onward were topped with chelator-free media. The pre-purified CD34^+ cultures were not supplemented with TEPA and served as positive controls. The cultures were analyzed weekly during a 12-week period. Non-purified (mixed cells) mononuclear cells (MNC) were seeded in culture bags and were provided with nutrients and cytokines as described in Example 4 above. The mixed cell cultures were either untreated (control) or treated with Cu-TEPA chelate. The treated MNC cultures were supplemented with Cu-TEPA chelate for only the first three weeks and from week three onward were topped with chelator-free media. All cultures were analyzed […].

CD34+ cells [1] = assay: Self-renewal potential: colony-forming cells (CFU) from CD34+ cultures; conditions: for number of colony-forming cells of CD34+ vs untreated control: 5 and 7 weeks incubation, different concentrations, TPO, FLT-3, IL-6, IL-3, FIGS. 15a-c; for CFUc: eight-week cultures, FIG. 2d, control 0; for numbers of CD34+ Lin− colony-forming cells, fold higher than untreated control: four weeks, with IL-3, FIG. 6d
From the text: Ex vivo expansion of progenitor cells: Enriched CD34^+ cell fractions were cultures in 24-well Costar Cell Culture Clusters (Corning Inc., Corning, N.Y.) or in Culture Bags (American Fluoroseal Corp.) with alpha minimal essential medium supplemented with 10% fetal bovine serum (FBS, Biological Industries), at about 1-3×10^4 cells/ml medium. The media were further supplemented with the following human recombinant cytokines (all obtained from Perpo Tech, Inc., Rocky Hill, N.J.): Thrombopoietin (TPO), 50 ng/ml; interleukin 6 (IL-6), 50 ng/ml; FLT-3 ligand, 50 ng/ml; and IL-3, 20 ng/ml. The cultures were incubated at 37° C. in an atmosphere of 5% CO2 in air with extra humidity. At weekly intervals cell cultures were semi-depopulated and supplemented with fresh medium containing the cytokines. Following different incubation periods, the cells were harvested, stained with trypan blue and enumerated. The total cell counts, numbers of CD34^+ cells and subsets thereof, and the number of colony-forming cells (CFU) are presented herein as cumulative numbers, with the assumption that the cultures had not been passaged, namely, the numbers of cells per ml were multiplied by the number of passages performed. Self-renewal potential evaluations: The self-renewal potential of stem cells was determined in vitro by long-term colony formation. Cells were washed and seeded in a semi-solid methylcellulose medium supplemented with 2 IU/ml erythropoietin ([…] Int., Switzerland), stem cell factor and IL-3, both at 20 ng/ml (Perpo Tech), and G-CSF and GM-CSF, both at 10 ng/ml (Perpo Tech). The resulting colonies were scored after two weeks of incubation at 37° C. in a humidified atmosphere of 5% CO2 in air. Colonies were classified as blast, mixed, erythroid, myeloid, and megakaryocytic, according to their cellular composition.

CD34+ cells [2] = assay: Cellular copper content by atomic absorption; conditions: 2 days incubation, relative to untreated control
Description: Cell cultures: Cultures of enriched CD34^+ cell fraction were generated, maintained and analyzed as described in Example 1 above.
Copper Determination: Cells were harvested by centrifugation at 1000 g for 5 minutes. The cell pellet was washed three times in PBS. Aliquots containing 2×10^6 cells were then transferred into a metal-free Eppendorf tube and pelleted by centrifugation at 1000 g. The cell pellet was re-suspended in 0.03 M ultra-pure nitric acid to give a concentration of 1×10^7 cells/ml. The cells were sonicated and then analyzed in duplicate by a Perkin Elmer graphite furnace atomic absorption spectrophotometer at a wavelength of 324.7 nm and a 0.7 slit width. The following times and temperatures were used: drying at 95° C. for 45 seconds with a 15-s ramp; charring at […] for 30 seconds with a 10-s ramp, and atomization at […] for 10 seconds. The peak area was integrated for 10 seconds. The samples were analyzed against copper standard solution prepared from a commercial stock solution that was diluted with 0.03 M ultra pure nitric acid.
Effect of TEPA-Cu chelate and TEPA chelator on the cellular copper content: Purified CD34^+ cell were seeded in liquid culture in the presence of early cytokines and treated either with TEPA-Cu chelate or with TEPA chelator. After 2 days incubation, cells were separated from culture media and analyzed for cellular copper content. The results are presented in Table 1 below and indicate that cultured cells treated with TEPA-Cu chelate, at different concentrations, developed progressively higher cellular copper content. In contrast, cultured cells treated with TEPA chelator, at different concentrations, developed progressively lower cellular copper contents.

[3] = 50 μM, MNC culture, eight weeks after seeding
[4] = 100 μM, MNC culture, eight weeks after seeding

Q: Which results are given for `NCCNCCNCCNCCN` [TEPA chelator, tetraethylenepentamine]?
A: cumulative number of CD34+CD38− cells (mononuclear cells (MNC); MNC culture, after 2 weeks, FIG. 17): non-detectable; cumulative number of CD34+ cells (mononuclear cells (MNC); MNC culture, after 2 weeks): non-detectable; cumulative number of CD34+CD38− cells (mononuclear cells (MNC); MNC culture, after 12 weeks, FIG. 17): 2.5×10^7 cells/ml; cumulative number of CD34+ cells (mononuclear cells (MNC); MNC culture, after 12 weeks): over 8×10^7 cells/ml; stem and progenitor cells densities vs pre-purified CD34+ cells cultures (not treated with TEPA) (mononuclear cells (MNC); TEPA-treated MNC cultures, 12-week period): either equalized or surpassed; number of colony-forming cells of CD34+ vs untreated control (CD34+ cells [1]): substantially increased; Relative cellular-copper content (%) (CD34+ cells [2]; 5 μM): 80%; Relative cellular-copper content (%) (CD34+ cells [2]; 10 μM): 55%; Relative cellular-copper content (%) (CD34+ cells [2]; 20 μM): 42%

Q: With `NCCNCCNCCNCCN.[Cl-].[Cl-].[Cu+2]` [TEPA-Cu chelate, tetraethylenepentamine-copper chelate] as the molecule, how does the “cumulative number of CD34+ cells per culture bag” value (mononuclear cells (MNC); 50 μM, MNC culture, 8 weeks) read?
A: 12.37×10^6

Q: What about the “Portion of CD34+ cells (%)” value (mononuclear cells (MNC); [3]) of the same molecule?
A: 1.4%

Q: And the “Number of CD34+ cells (×10^4)” value (mononuclear cells (MNC); [3])?
A: 1237.3 ×10^4

Q: What about the “cumulative number of CD34+CD38− cells” value (mononuclear cells (MNC); 100 μM, MNC culture, 8 weeks, control 2.1×10^5) of the same molecule?
A: 6.1×10^5

Q: And the “cumulative number of CD34+ cells per culture bag” value (mononuclear cells (MNC); 100 μM, MNC culture, 8 weeks)?
A: 32.85×10^6

Q: And the “Portion of CD34+ cells (%)” value (mononuclear cells (MNC); [4])?
A: 1.2%

Q: What about the “Nunber of CD34/38− cells (×10^4)” value (mononuclear cells (MNC); 100 μM, MNC culture, eight weeks after seeding, control 21) of the same molecule?
A: 61 ×10^4

Q: What about the “Number of CD34+ cells (×10^4)” value (mononuclear cells (MNC); [4]) of the same molecule?
A: 3285.3 ×10^4

Q: What about the CFUc (CD34+ cells [1]; 5 μM) of the same molecule?
A: 0 CFUc

Q: What about the CFUc (CD34+ cells [1]; 10 μM) of the same molecule?
A: 1 CFUc

Q: And the CFUc (CD34+ cells [1]; 15 μM)?
A: 30 CFUc

Q: What about the CFUc (CD34+ cells [1]; 20 μM) of the same molecule?
A: 120 CFUc

Q: What about the “numbers of CD34+ Lin− colony-forming cells, fold higher than untreated control” value (from here on “numbers … fold higher than untreated control”) (CD34+ cells [1]; 20 μM) of the same molecule?
A: 7 fold

Q: What about the CFUc (CD34+ cells [1]; 40 μM) of the same molecule?
A: 400 CFUc

Q: And the “numbers … fold higher than untreated control” value (CD34+ cells [1]; 40 μM)?
A: 9 fold

Q: And the “numbers … fold higher than untreated control” value (CD34+ cells [1]; 50 μM)?
A: 7.5 fold

Q: What about the “effectiveness of higher vs lower concentrations on colony-forming cells” value (CD34+ cells [1]; 100 μM vs 10 and 50 μM, 8 week-old cultures, FIG. 1) of the same molecule?
A: substantially more effective

Q: And the “number of colony-forming cells of CD34+ vs untreated control” value (CD34+ cells [1])?
A: substantially increased

Q: What about the “colony-forming cells of CD34+ vs cultures treated only with cytokines” value (CD34+ cells [1]; 8 week-old cultures, FIG. 1) of the same molecule?
A: substantially more colony-forming cells

Q: What about the “numbers of CFUc vs non-treated control (cytokines only)” value (CD34+ cells [1]; longer incubation (5, 6, 8 weeks), chelate supplemented first three weeks, FIGS. 2b-d) of the same molecule?
A: substantially higher

Q: What about the “Relative cellular-copper content (%)” value (CD34+ cells [2]; 10 μM) of the same molecule?
A: 178%

Q: And the “Relative cellular-copper content (%)” value (CD34+ cells [2]; 30 μM)?
A: 235%

Q: What about the “Relative cellular-copper content (%)” value (CD34+ cells [2]; 60 μM) of the same molecule?
A: 290%
